Measurements as given in PubChem BioAssay AID330 (DTP/NCI, 2004).
Where “and” joins values, the source holds several entries; their conditions need not be identical. Equal entries are not always repeated. Toxic doses and inconclusive results are not listed. Rule for the calls: active = survival T/C of 150% or more; inactive = T/C below 125% in these data. Peptide text beside a SMILES is read from it.

System: P388 leukemia ip, CD2F1 mice, survival T/C
Assay: NCI In Vivo Anticancer Drug Screen. Data for tumor model P388 Leukemia (intraperitoneal) in CD2F1 (CDF1) mice
Details: endpoint: median survival time, higher = longer survival
Outline: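 Mice carrying the transplanted tumor received test compound or vehicle. Survival was recorded in each group, and the value is the treated-group measurement divided by that of the vehicle-treated control group.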

[1] = dose: 50.0 mg/kg/injection, schedule: Q01DX009 (ip), vehicle: Klucel (hydroxypropylcellulose) (HPC)
[2] = dose: 100.0 mg/kg/injection, schedule: Q01DX009 (ip), vehicle: Klucel (hydroxypropylcellulose) (HPC)
[3] = dose: 200.0 mg/kg/injection, schedule: Q01DX009 (ip), vehicle: Klucel (hydroxypropylcellulose) (HPC)
[4] = dose: 50.0 mg/kg/injection, schedule: Q01DX009 (ip), vehicle: saline with Tween-80
[5] = dose: 100.0 mg/kg/injection, schedule: Q01DX009 (ip), vehicle: saline with Tween-80
[6] = dose: 50.0 mg/kg/injection, schedule: Q01DX009 (ip), vehicle: saline
[7] = dose: 100.0 mg/kg/injection, schedule: Q01DX009 (ip), vehicle: saline
[8] = dose: 60.0 mg/kg/injection, schedule: Q01DX005 (ip), vehicle: saline with Tween-80
[9] = dose: 120.0 mg/kg/injection, schedule: Q01DX005 (ip), vehicle: saline with Tween-80
[10] = dose: 60.0 mg/kg/injection, schedule: Q01DX005 (ip), vehicle: Klucel (hydroxypropylcellulose) (HPC)
[11] = dose: 120.0 mg/kg/injection, schedule: Q01DX005 (ip), vehicle: Klucel (hydroxypropylcellulose) (HPC)
[12] = dose: 200.0 mg/kg/injection, schedule: Q01DX009 (ip), vehicle: saline with Tween-80
[13] = dose: 50.0 mg/kg/injection, schedule: Q01DX005 (ip), vehicle: saline
[14] = dose: 100.0 mg/kg/injection, schedule: Q01DX005 (ip), vehicle: saline

Measured: T/C

CC(=O)c1c(O)c(C)c(O)c2c1OC1=CC(=O)/C(=C(/C)N)C(=O)C12C (centres undefined)
inactive: dose: 6.25 mg/kg/injection, schedule: Q01DX009 (ip), vehicle: gum acacia 107 % of control and 112 % of control | dose: 12.5 mg/kg/injection, schedule: Q01DX009 (ip), vehicle: gum acacia 100 % of control and 105 % of control | dose: 25.0 mg/kg/injection, schedule: Q01DX009 (ip), vehicle: gum acacia 102 % of control and 109 % of control | dose: 50.0 mg/kg/injection, schedule: Q01DX009 (ip), vehicle: gum acacia 100 % of control and 86 % of control | dose: 100.0 mg/kg/injection, schedule: Q01DX009 (ip), vehicle: gum acacia 100 % of control and 106 % of control | dose: 200.0 mg/kg/injection, schedule: Q01DX009 (ip), vehicle: gum acacia 102 % of control and 110 % of control

C/C=C/C=C/C(=O)Nc1ncc([N+](=O)[O-])s1
inactive: [1] 103 % of control | [2] 104 % of control | [3] 109 % of control

COC(=O)CCN1CCCC1CC(O)/C=C/c1ccccc1 (centres undefined)
inactive: dose: 100.0 mg/kg/injection, schedule: Q01DX001 (ip), vehicle: saline with Tween-80 93 % of control | dose: 200.0 mg/kg/injection, schedule: Q01DX001 (ip), vehicle: saline with Tween-80 100 % of control | dose: 400.0 mg/kg/injection, schedule: Q01DX001 (ip), vehicle: saline with Tween-80 106 % of control

CC(C)c1ccc(OS(=O)(=O)C(F)(F)C(F)(F)C(F)(F)C(F)(F)F)cc1
inactive: [4] 99 % of control | [5] 105 % of control

COC(=O)C1CC(c2ccccc2)N(c2ccccc2)O1 (centres undefined)
inactive: [1] 100 % of control | [2] 103 % of control | [3] 100 % of control

O=C(NC(CCS(=O)(=O)F)C(=O)OCc1ccccc1)OCc1ccccc1 (centres undefined)
inactive: dose: 12.5 mg/kg/injection, schedule: Q01DX009 (ip), vehicle: other 102 % of control | dose: 25.0 mg/kg/injection, schedule: Q01DX009 (ip), vehicle: other 97 % of control | dose: 50.0 mg/kg/injection, schedule: Q01DX009 (ip), vehicle: other 100 % of control | dose: 100.0 mg/kg/injection, schedule: Q01DX009 (ip), vehicle: other 102 % of control | dose: 200.0 mg/kg/injection, schedule: Q01DX009 (ip), vehicle: other 105 % of control

O=C(S[Si](c1ccccc1)(c1ccccc1)c1ccccc1)c1ccccc1
inactive: [6] 102 % of control | [7] 110 % of control

C=COC(=O)C(Cc1ccc(Cl)cc1)NC(=O)OCc1ccccc1 (centres undefined)
inactive: dose: 100.0 mg/kg/injection, schedule: Q04DX002 (ip), vehicle: Klucel (hydroxypropylcellulose) (HPC) 97 % of control | dose: 200.0 mg/kg/injection, schedule: Q04DX002 (ip), vehicle: Klucel (hydroxypropylcellulose) (HPC) 91 % of control | dose: 400.0 mg/kg/injection, schedule: Q04DX002 (ip), vehicle: Klucel (hydroxypropylcellulose) (HPC) 95 % of control

Cc1nc2c(Br)cc(Br)cc2c(=O)n1CC(=O)NNC(N)=S
inactive: [1] 95 % of control | [2] 104 % of control | [3] 101 % of control

Cc1cc(C2(c3cc(C)c(O)c(C)c3)CC3CCC2C3)cc(C)c1O (centres undefined)
inactive: [1] 88 % of control | [2] 97 % of control | [3] 93 % of control

CC1=CC2=C(C#N)C(=O)OC2(C)C(c2ccccc2)C1 (centres undefined)
inactive: [8] 100 % of control | [9] 101 % of control | dose: 240.0 mg/kg/injection, schedule: Q01DX005 (ip), vehicle: saline with Tween-80 100 % of control

O=C1OI(O)c2ccccc21
inactive: [10] 106 % of control | [11] 106 % of control

CN(C)c1ccc(/C=C/C=N/NC(=S)NC23CC4CC(CC(C4)C2)C3)cc1
inactive: [8] 89 % of control | [9] 86 % of control

Cc1ccccc1-c1nc2c3ccccc3c3ccccc3c2[nH]1
inactive: dose: 50.0 mg/kg/injection, schedule: Q01DX005 (ip), vehicle: Klucel (hydroxypropylcellulose) (HPC) 103 % of control | dose: 100.0 mg/kg/injection, schedule: Q01DX005 (ip), vehicle: Klucel (hydroxypropylcellulose) (HPC) 96 % of control | dose: 200.0 mg/kg/injection, schedule: Q01DX005 (ip), vehicle: Klucel (hydroxypropylcellulose) (HPC) 100 % of control

CCCCCCCCCCCN(C)C
inactive: dose: 50.0 mg/kg/injection, schedule: Q01DX005 (ip), vehicle: saline with Tween-80 105 % of control | dose: 100.0 mg/kg/injection, schedule: Q01DX005 (ip), vehicle: saline with Tween-80 105 % of control

CC1(C)N=C(c2ccccc2)C(c2ccccc2)=NC1(C)C
inactive: dose: 100.0 mg/kg/injection, schedule: Q04DX002 (ip), vehicle: saline 101 % of control | dose: 200.0 mg/kg/injection, schedule: Q04DX002 (ip), vehicle: saline 98 % of control | dose: 400.0 mg/kg/injection, schedule: Q04DX002 (ip), vehicle: saline 104 % of control

CCO/C=C1\SC(=S)N(c2ccccc2OC)C1=O
inactive: dose: 88.0 mg/kg/injection, schedule: Q01DX009 (ip), vehicle: saline with Tween-80 118 % of control | dose: 100.0 mg/kg/injection, schedule: Q04DX003 (ip), vehicle: saline with Tween-80 104 % of control | dose: 132.0 mg/kg/injection, schedule: Q01DX009 (ip), vehicle: saline with Tween-80 119 % of control | dose: 178.0 mg/kg/injection, schedule: Q04DX003 (ip), vehicle: saline with Tween-80 118 % of control | [12] 112 % of control | dose: 200.0 mg/kg/injection, schedule: Q04DX003 (ip), vehicle: saline with Tween-80 109 % of control | dose: 266.0 mg/kg/injection, schedule: Q04DX003 (ip), vehicle: saline with Tween-80 118 % of control | dose: 400.0 mg/kg/injection, schedule: Q04DX003 (ip), vehicle: saline with Tween-80 122 % of control

COc1cc(Br)c(C2SCC(=O)N2c2nncs2)cc1OC (centres undefined)
inactive: [10] 121 % of control | [11] 106 % of control | dose: 240.0 mg/kg/injection, schedule: Q01DX005 (ip), vehicle: Klucel (hydroxypropylcellulose) (HPC) 100 % of control

CC(C)(C)C1(C#N)C(=O)N(c2ccc(Cl)cc2)C12c1ccccc1-c1ccccc12 (centres undefined)
inactive: [1] 99 % of control | [2] 118 % of control | [3] 105 % of control

CCCCN(CCCC)CC(C)(O)CNc1cc(OC)cc2cccnc12 (centres undefined)
inactive: dose: 25.0 mg/kg/injection, schedule: Q01DX005 (ip), vehicle: saline 101 % of control | [13] 107 % of control | [14] 98 % of control

NC(CCC(=O)O)C(=O)NC(Cc1c[nH]c2ccccc12)C(=O)NC(CCC(=O)O)C(=O)O (stereo not drawn) (H-Glu-Trp-Glu-OH; configuration not given here)
inactive: [13] 93 % of control | [14] 104 % of control | dose: 200.0 mg/kg/injection, schedule: Q01DX005 (ip), vehicle: saline 105 % of control

CCOC(=O)C1CCCCC1NC1CCCCC1C(=O)OCC (centres undefined)
inactive: dose: 34.5 mg/kg/injection, schedule: Q01DX009 (ip), vehicle: saline with Tween-80 105 % of control | [4] 120 % of control | [6] 103 % of control | [5] 117 % of control | [7] 112 % of control | dose: 138.0 mg/kg/injection, schedule: Q01DX009 (ip), vehicle: saline with Tween-80 107 % of control | [12] 120 % of control | dose: 200.0 mg/kg/injection, schedule: Q01DX009 (ip), vehicle: saline 108 % of control

Cc1ccccc1/C=C1/C(=O)C(c2ccccc2)=C1c1ccccc1
inactive: dose: 100.0 mg/kg/injection, schedule: Q01DX001 (ip), vehicle: Klucel (hydroxypropylcellulose) (HPC) 105 % of control | dose: 200.0 mg/kg/injection, schedule: Q01DX001 (ip), vehicle: Klucel (hydroxypropylcellulose) (HPC) 106 % of control | dose: 400.0 mg/kg/injection, schedule: Q01DX001 (ip), vehicle: Klucel (hydroxypropylcellulose) (HPC) 100 % of control
